This note sets out measurements from paper PMC10507085, “Pharmacological inhibition of TBK1/IKKε blunts immunopathology in a murine model of SARS-CoV-2 infection” (Nature Communications, 2023).

Common to all, as to assay: biochemical
Design in all cases: KINOMEscan competition binding, DNA-tagged kinase against immobilised ligand, qPCR read-out
Holding throughout (conditions): read-out: Percent Control

Experiment [1] has as its target CHUK (Homo sapiens, UniProt O15111).
The target of experiment [2] is CASK (Homo sapiens, UniProt O14936).
Experiment [3] concerns the target PHKG1 (Homo sapiens, UniProt Q16816).
Experiment [4] has as its target T1, RSK2(Kin.Dom.2-C-terminal) (Homo sapiens, UniProt P51812).
T1 construct: gene RPS6KA3; Kin.Dom.2 C-terminal

The target of experiment [5] is LIMK2 (Homo sapiens, UniProt P53671).
Experiment [6] addresses CDKL2 (Homo sapiens, UniProt Q92772).
For experiment [7], the target named is TGFBR2 (Homo sapiens, UniProt P37173).
The target of experiment [8] is STK25 (Homo sapiens, UniProt O00506).
Experiment [9] addresses BRSK2 (Homo sapiens, UniProt Q8IWQ3).
The target of experiment [10] is MAP3K3 (Homo sapiens, UniProt Q99759).
In experiment [11] the target is PRKAA1 (Homo sapiens, UniProt Q13131).
Experiment [12] concerns the target MKNK2 (Homo sapiens, UniProt Q9HBH9).
In experiment [13] the target is NLK (Homo sapiens, UniProt Q9UBE8).
For experiment [14], the target named is LATS1 (Homo sapiens, UniProt O95835).
Experiment [15] deals with RIPK4 (Homo sapiens, UniProt P57078).
Experiment [16] deals with FER (Homo sapiens, UniProt P16591).
For experiment [17], the target named is MAP4K4 (Homo sapiens, UniProt O95819).
The target in experiment [18] is SRPK3 (Homo sapiens, UniProt Q9UPE1).
For experiment [19], the target named is EIF2AK1 (Homo sapiens, UniProt Q9BQI3).
The target of experiment [20] is MAP4K2 (Homo sapiens, UniProt Q12851).

SMILES strings stand for the structures.

STK25, sequence (O00506 whole entry): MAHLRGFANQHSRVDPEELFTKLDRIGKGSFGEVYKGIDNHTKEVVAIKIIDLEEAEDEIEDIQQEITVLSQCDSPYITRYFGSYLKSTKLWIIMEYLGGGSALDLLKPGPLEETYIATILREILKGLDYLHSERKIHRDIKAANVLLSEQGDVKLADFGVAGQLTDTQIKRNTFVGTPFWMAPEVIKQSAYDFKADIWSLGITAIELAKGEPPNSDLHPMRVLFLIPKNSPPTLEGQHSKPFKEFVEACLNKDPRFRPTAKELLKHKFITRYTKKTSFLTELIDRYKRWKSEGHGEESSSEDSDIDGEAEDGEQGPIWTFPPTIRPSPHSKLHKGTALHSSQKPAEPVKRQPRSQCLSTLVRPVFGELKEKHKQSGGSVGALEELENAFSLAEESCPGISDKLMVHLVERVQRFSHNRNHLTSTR
PRKAA1, sequence (Q13131 whole entry): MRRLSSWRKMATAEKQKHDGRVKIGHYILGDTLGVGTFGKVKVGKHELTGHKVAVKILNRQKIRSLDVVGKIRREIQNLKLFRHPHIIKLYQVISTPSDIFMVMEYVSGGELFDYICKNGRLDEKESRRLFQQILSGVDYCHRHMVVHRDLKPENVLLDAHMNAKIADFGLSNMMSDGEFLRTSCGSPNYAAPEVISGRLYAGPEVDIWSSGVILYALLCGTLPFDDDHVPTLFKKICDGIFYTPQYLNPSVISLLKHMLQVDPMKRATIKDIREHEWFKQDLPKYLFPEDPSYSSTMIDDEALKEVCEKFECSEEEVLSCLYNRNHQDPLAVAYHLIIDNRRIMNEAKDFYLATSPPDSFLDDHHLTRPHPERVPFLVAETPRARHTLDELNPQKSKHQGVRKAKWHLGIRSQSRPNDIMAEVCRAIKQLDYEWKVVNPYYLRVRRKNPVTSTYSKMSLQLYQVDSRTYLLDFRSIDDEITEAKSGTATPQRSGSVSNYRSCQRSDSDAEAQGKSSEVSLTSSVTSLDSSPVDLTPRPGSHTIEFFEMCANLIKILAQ
NLK, sequence (Q9UBE8 whole entry): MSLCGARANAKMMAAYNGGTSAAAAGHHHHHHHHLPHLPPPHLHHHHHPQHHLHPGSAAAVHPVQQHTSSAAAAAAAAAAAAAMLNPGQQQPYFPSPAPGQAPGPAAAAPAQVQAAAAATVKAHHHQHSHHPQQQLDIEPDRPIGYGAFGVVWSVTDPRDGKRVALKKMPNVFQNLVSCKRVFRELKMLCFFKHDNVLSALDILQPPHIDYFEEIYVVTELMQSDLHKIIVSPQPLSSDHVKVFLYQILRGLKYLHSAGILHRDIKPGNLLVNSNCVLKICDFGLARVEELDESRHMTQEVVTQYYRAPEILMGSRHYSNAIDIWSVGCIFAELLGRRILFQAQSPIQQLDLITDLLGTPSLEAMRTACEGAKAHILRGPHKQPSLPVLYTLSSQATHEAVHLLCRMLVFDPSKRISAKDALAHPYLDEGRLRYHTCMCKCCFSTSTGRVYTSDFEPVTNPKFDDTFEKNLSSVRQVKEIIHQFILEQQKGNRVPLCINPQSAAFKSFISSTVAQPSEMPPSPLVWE
MKNK2, sequence (Q9HBH9 whole entry): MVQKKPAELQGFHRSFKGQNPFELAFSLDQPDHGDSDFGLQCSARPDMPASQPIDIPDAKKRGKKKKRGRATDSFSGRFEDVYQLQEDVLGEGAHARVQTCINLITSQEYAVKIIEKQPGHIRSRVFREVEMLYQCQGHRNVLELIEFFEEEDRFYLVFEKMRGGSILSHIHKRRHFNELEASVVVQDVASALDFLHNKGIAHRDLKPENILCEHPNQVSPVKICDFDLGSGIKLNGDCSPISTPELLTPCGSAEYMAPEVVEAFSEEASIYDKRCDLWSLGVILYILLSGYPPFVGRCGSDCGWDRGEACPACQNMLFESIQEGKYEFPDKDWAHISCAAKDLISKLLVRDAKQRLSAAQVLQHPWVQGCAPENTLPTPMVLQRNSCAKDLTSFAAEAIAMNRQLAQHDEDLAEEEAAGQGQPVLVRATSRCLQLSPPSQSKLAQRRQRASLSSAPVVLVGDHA
BRSK2, sequence (Q8IWQ3 whole entry): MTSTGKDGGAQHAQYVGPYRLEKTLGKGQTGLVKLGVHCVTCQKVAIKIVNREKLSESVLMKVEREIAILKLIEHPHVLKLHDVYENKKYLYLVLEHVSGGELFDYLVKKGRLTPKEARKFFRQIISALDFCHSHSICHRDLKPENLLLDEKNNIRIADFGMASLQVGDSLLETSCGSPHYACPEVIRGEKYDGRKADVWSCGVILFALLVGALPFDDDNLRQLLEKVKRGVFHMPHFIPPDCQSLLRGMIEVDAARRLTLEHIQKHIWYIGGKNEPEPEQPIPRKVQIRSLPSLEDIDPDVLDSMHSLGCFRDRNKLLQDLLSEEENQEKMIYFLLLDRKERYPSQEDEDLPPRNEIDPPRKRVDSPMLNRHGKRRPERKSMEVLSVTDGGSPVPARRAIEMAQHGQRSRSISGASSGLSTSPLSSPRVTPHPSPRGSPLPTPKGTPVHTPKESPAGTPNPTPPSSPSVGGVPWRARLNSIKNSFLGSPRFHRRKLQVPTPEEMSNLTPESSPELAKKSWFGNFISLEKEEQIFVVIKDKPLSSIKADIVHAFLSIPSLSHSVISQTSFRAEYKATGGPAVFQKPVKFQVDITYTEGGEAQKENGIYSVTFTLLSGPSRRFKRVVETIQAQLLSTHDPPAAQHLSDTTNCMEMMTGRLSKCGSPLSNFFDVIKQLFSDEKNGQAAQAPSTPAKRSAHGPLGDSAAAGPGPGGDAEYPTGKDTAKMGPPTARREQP
CHUK, sequence (O15111 whole entry): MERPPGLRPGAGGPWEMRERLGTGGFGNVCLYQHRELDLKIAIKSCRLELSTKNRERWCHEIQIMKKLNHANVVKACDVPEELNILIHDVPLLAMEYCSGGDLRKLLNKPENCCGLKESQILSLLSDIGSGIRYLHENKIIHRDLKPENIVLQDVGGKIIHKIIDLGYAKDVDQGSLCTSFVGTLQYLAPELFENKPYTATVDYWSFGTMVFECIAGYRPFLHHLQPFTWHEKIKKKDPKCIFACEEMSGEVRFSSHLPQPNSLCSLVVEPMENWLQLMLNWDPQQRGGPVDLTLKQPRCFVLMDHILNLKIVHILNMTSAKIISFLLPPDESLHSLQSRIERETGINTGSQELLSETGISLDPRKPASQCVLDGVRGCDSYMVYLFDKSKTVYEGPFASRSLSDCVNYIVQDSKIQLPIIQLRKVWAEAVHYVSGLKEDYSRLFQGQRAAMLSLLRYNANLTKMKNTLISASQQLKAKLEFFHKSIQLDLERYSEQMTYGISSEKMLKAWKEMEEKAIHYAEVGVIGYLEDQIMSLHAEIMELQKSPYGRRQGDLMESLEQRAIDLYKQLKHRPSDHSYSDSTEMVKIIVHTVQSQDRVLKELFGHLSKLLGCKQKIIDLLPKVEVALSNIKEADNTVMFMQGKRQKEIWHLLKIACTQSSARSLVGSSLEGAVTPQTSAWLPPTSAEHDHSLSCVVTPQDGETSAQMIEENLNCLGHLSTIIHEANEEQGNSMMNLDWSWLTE
CASK, sequence (O14936 whole entry): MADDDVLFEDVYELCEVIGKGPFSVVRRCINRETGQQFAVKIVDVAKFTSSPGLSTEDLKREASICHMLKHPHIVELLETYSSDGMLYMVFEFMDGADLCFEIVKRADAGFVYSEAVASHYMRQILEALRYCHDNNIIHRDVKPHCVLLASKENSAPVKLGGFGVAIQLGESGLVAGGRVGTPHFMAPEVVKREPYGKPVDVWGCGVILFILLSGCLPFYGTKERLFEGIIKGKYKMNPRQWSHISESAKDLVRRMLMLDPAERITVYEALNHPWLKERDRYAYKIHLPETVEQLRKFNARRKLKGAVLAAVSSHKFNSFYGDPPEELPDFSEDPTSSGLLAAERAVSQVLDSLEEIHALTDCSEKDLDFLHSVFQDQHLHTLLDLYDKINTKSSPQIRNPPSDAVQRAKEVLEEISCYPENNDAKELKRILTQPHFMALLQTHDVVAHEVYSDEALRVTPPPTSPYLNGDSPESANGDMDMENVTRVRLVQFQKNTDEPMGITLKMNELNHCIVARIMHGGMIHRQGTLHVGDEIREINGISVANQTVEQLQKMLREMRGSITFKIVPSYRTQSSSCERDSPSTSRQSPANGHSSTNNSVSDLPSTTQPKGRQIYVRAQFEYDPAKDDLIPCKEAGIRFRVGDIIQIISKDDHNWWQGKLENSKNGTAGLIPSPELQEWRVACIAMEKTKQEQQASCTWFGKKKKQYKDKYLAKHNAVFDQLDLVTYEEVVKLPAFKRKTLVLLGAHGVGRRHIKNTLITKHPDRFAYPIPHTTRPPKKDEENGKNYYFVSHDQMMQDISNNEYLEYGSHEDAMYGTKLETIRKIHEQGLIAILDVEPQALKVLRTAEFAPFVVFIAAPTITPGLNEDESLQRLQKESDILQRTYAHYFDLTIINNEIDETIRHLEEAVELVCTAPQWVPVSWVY
MAP3K3, sequence (Q99759 whole entry): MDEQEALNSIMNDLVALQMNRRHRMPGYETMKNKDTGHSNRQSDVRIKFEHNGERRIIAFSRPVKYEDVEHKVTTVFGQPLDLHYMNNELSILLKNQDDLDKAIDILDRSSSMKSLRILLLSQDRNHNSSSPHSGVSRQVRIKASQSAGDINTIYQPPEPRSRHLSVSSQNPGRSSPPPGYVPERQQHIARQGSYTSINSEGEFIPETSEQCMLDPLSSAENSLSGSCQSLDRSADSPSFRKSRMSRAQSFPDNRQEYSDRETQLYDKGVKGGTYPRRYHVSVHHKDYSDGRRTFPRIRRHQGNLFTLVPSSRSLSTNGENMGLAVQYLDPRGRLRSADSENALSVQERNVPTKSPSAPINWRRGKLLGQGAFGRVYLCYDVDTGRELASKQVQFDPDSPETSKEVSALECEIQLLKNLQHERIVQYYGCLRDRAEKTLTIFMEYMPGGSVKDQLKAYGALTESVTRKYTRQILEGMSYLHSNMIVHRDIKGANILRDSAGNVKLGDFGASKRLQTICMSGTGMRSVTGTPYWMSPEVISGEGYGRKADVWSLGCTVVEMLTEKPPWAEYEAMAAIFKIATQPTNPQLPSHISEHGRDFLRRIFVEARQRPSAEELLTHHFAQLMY

Regarding `Oc1ccc(C2=Cc3ccc(O)cc3OC2)cc1` [compound 1, idronoxil], the remaining binding at 10 µM turned out to be 81% in [1]; 65% in experiment [2]; 57% in experiment [3]; 95% in [4]; 90% in [5]; 100% in experiment [6]. Further, the remaining binding at 10 µM worked out at 100% in experiment [7]; 77% in [8]; 84% in experiment [9]; 81% in experiment [10]; 100% in experiment [11]; 54% in experiment [12]. Besides, the remaining binding at 10 µM worked out at 67% in experiment [13]; 100% in experiment [14]; 73% in experiment [15]; 78% in experiment [16]; 47% in experiment [17]; 94% in experiment [18]. Moreover, the figures for the remaining binding at 10 µM in [19] and in [20] were 88% and 26%, respectively.
